Measured values taken from patent publication US20100197650A1, “COMPOSITIONS AND METHODS OF TREATMENT COMPRISING CEFTAROLINE” (FOREST LABORATORIES HOLDINGS LTD., priority 2008, published 2010).
Converted amounts (≈) assume the structure as drawn. Where two headings read alike, the source gives them in different places.

Experiments:
P. aeruginosa = assay: Susceptibility testing MIC/MBC, broth microdilution (Example 2); assay type: cell-based, Pseudomonas aeruginosa; details: for MBC range / MIC range: P. aeruginosa (20) clinical isolates; for MBC / MIC: Pseudomonas aeruginosa
[1] = tested on: AmpC-derepressed Enterobacter cloacae; assay: microbe, parasite or virus in culture; assay type: cell-based; details: for MBC range / MIC range: E. cloacae (10) clinical isolates; for MBC / MIC: Enterobacter cloacae
[2] = tested on: clinical Enterobacteriacae and P. aeruginosa isolates; assay: Susceptibility testing (Example 2), summary over species; assay type: cell-based; details: Pseudomonas aeruginosa, read-out: MIC values
[3] = tested on: ESBL-producing Klebsiella pneumoniae; assay: Susceptibility testing MIC/MBC, broth microdilution (Example 2); assay type: cell-based; details: for MBC range / MIC range: K. pneumonia (10) clinical isolates; for MBC / MIC: Klebsiella pneumoniae
Staphylococcus aureus = assay: MIC, broth microdilution (Example 1); assay type: cell-based
Experimental: (§1) Stock solutions of all antibacterial agents were prepared at 80-fold (80×) the final target concentration in the appropriate solvent and the solution was allowed to stand for 60 minutes. All antibacterial agents were in solution under these conditions. The final drug concentrations in the FIC assay plates were set to bracket the MIC value of each agent for each test organism, unless the strain was totally resistant to the test agent.
(§2) The test organisms were originally received from clinical sources, or from the American Type Culture Collection. Upon receipt, the isolates were streaked onto the appropriate growth medium: Chocolate Agar for H. influenzae, Tryptic Soy Agar II (Becton Dickinson, Sparks, Md.) supplemented with 5% defibrinated sheep blood for streptococci, and unsupplemented Tryptic Soy Agar II for all other organisms. Colonies were harvested from these plates and a cell suspension was prepared in Tryptic Soy Broth (Becton Dickinson) containing cryoprotectant. Aliquots were then frozen at −80° C. On the day prior to assay, the frozen seeds of the organisms to be tested in that session were thawed and streaked for isolation onto the appropriate agar medium plates and incubated overnight at 35° C.
(§3) The test medium for H. influenzae was Haemophilus Test Medium. Streptococci were tested in Mueller Hinton II Broth (Becton Dickinson; Lot 6235472) supplemented with 2% lysed horse blood (Cleveland Scientific, Bath, Ohio; Lot H88621). All other organisms were tested in Mueller Hinton II Broth (Becton Dickinson, Lot 6235472). The broth was prepared at 1.05× normal weight/volume to offset the 5% volume of the drugs in the final test plates.
(§4) In order to select the proper test concentrations for each drug combination, minimal inhibitory concentration (MIC) values were first determined using the broth microdilution method previously described (Clinical and Laboratory Standards Institute. Methods for Dilution Antimicrobial Susceptibility Tests for Bacteria That Grow Aerobically; Approved Standard—Seventh Edition. Clinical and Laboratory Standards Institute document M7-A7 [ISBN 1-56238-587-9]. Clinical and Laboratory Standards Institute, 940 West Valley Road, Suite 1400, Wayne, Pa. 19087-1898 USA, 2006).
(§5) The wells of standard 96-well microdilution plates (Falcon 3918) were filled with 150 μL of 100% DMSO using the Multidrop 384. These plates were used to prepare the drug “mother plates” which provided the serial drug dilutions for the drug combination plates. The Biomek 2000 was used to transfer 150 μl of each stock solution (80×) from the wells in Column 1 of a deep well plate to the corresponding wells in Column 1 of the mother plate and to make seven 2-fold serial dilutions. Two mother plates, one for each drug, were combined to form a “checkerboard” pattern by transfer of equal volumes (using a multi-channel pipette) to the drug combination plate. Row H and Column 8 each contained serial dilutions of one of the agents alone for determination of the MIC.
(§6) Plates were stacked 3 high, covered with a lid on the top plate, placed in plastic bags, and incubated at 35° C. for approximately 20 hours. Following incubation, the microplates were removed from the incubator and viewed from the bottom using a ScienceWare plate viewer. Prepared reading sheets were marked for the MIC of drug 1 (row H), the MIC of drug 2 (column 8) and the wells of the growth-no growth interface.

Klebsiella pneumoniae = assay: MIC, broth microdilution (Example 1); assay type: cell-based; details: Klebsiella pneumoniae
Experimental: as §1, §2, §3, §4, §5, §6

Pseudomonas aeruginosa = assay: MIC, broth microdilution (Example 1); assay type: cell-based
Experimental: as §1, §2, §3, §4, §5, §6

ESBL-producing E. coli = assay: Susceptibility testing MIC/MBC, broth microdilution (Example 2); assay type: cell-based, Escherichia coli; details: for MBC range / MIC range: E. coli (10) clinical isolates; for MBC / MIC: Escherichia coli
Acinetobacter baumannii = assay: MIC, broth microdilution (Example 1); assay type: cell-based
Experimental: as §1, §2, §3, §4, §5, §6

Streptococcus pneumoniae = assay: MIC, broth microdilution (Example 1); assay type: cell-based
Experimental: as §1, §2, §3, §4, §5, §6

How did the MBC range (P. aeruginosa) turn out when `C[C@@H](O)[C@H]1C(=O)N2C(C(=O)O)=C(S[C@@H]3CN[C@H](C(=O)N(C)C)C3)[C@H](C)[C@H]12` [Meropenem] was run?
Its MBC range is 0.125 to 32 µg/mL.

What about the MIC range (P. aeruginosa) of the same molecule?
Its MIC range is 0.125 to 16 µg/mL.

And the MBC (P. aeruginosa; P. aeruginosa isolate no. 796, read-out: MBC)?
The MBC was 2 µg/mL (≈ 5.22 µM).

And the MIC (P. aeruginosa; P. aeruginosa isolate no. 796, read-out: MIC)?
The MIC was 1 µg/mL (≈ 2.61 µM).

What about the MBC (P. aeruginosa; P. aeruginosa isolate no. 956, read-out: MBC) of the same molecule?
Its MBC is 2 µg/mL (≈ 5.22 µM).

And the MIC (P. aeruginosa; P. aeruginosa isolate no. 956, read-out: MIC)?
The MIC was 0.25 µg/mL (≈ 0.652 µM).

What about the MBC (P. aeruginosa; P. aeruginosa isolate no. 1019, read-out: MBC) of the same molecule?
Its MBC is 2 µg/mL (≈ 5.22 µM).

And the MIC (P. aeruginosa; P. aeruginosa isolate no. 1019, read-out: MIC)?
The MIC was 1 µg/mL (≈ 2.61 µM).

And the MBC (P. aeruginosa; P. aeruginosa isolate no. 1037, read-out: MBC)?
Its MBC is 1 µg/mL (≈ 2.61 µM).

What about the MIC (P. aeruginosa; P. aeruginosa isolate no. 1037, read-out: MIC) of the same molecule?
Its MIC is 0.5 µg/mL (≈ 1.3 µM).

And the MBC range [1]?
Its MBC range is 0.03 to 0.5 µg/mL.

What about the MIC range [1] of the same molecule?
Its MIC range is 0.03 to 0.25 µg/mL.

What about the MBC ([1]; E. cloacae isolate no. 4073) of the same molecule?
Its MBC is 0.5 µg/mL (≈ 1.3 µM).

What about the MIC ([1]; E. cloacae isolate no. 4073) of the same molecule?
Its MIC is 0.25 µg/mL (≈ 0.652 µM).

What about the MBC ([1]; E. cloacae isolate no. 5420) of the same molecule?
The MBC was 0.125 µg/mL (≈ 0.326 µM).

And the MIC ([1]; E. cloacae isolate no. 5420)?
Its MIC is 0.125 µg/mL (≈ 0.326 µM).

And the MIC ([2]; Enterobacteriacae (30 isolates))?
Its MIC is at most 4 µg/mL.

And the MBC range [3]?
Its MBC range is 0.06 to 0.125 µg/mL.

And the MIC range [3]?
The MIC range was 0.03 to 0.06 µg/mL.

And the MBC ([3]; K. pneumonia isolate no. 5427, read-out: MBC)?
Its MBC is 0.06 µg/mL (≈ 0.156 µM).

And the MIC ([3]; K. pneumonia isolate no. 5427, read-out: MIC)?
The MIC was 0.06 µg/mL (≈ 0.156 µM).

And the MBC ([3]; K. pneumonia isolate no. 5436, read-out: MBC)?
Its MBC is 0.06 µg/mL (≈ 0.156 µM).

And the MIC ([3]; K. pneumonia isolate no. 5436, read-out: MIC)?
Its MIC is 0.06 µg/mL (≈ 0.156 µM).

And the MIC (Staphylococcus aureus; S. aureus 2296 (CA-MRSA))?
The MIC was >16^a^ μg/mL.

And the MIC (Staphylococcus aureus; Staphylococcus aureus, MRSA, S. aureus 2202 (CA-MRSA), read-out: MIC)?
Its MIC is 4 µg/mL.

And the MIC (Staphylococcus aureus; Staphylococcus aureus, MRSA, S. aureus 2296 (CA-MRSA), read-out: MIC)?
The MIC was over 16 µg/mL.

And the MIC (Klebsiella pneumoniae; K. pneumoniae 1468 (ESBL), read-out: MIC)?
The MIC was 0.06 µg/mL.

And the MIC (Pseudomonas aeruginosa; P. aeruginosa 2555)?
The MIC was 4 µg/mL.

And the MIC (Pseudomonas aeruginosa; P. aeruginosa 2559)?
The MIC was 0.12 µg/mL.

What about the MBC range (ESBL-producing E. coli) of the same molecule?
The MBC range was 0.06 to 0.125 µg/mL.

And the MIC range (ESBL-producing E. coli)?
The MIC range was 0.03 to 0.06 µg/mL.

What about the MBC (ESBL-producing E. coli; E. coli isolate no. 5401, read-out: MBC) of the same molecule?
Its MBC is 0.06 µg/mL (≈ 0.156 µM).

And the MIC (ESBL-producing E. coli; E. coli isolate no. 5401, read-out: MIC)?
The MIC was 0.06 µg/mL (≈ 0.156 µM).

And the MBC (ESBL-producing E. coli; E. coli isolate no. 5411, read-out: MBC)?
The MBC was 0.06 µg/mL (≈ 0.156 µM).

What about the MIC (ESBL-producing E. coli; E. coli isolate no. 5411, read-out: MIC) of the same molecule?
Its MIC is 0.06 µg/mL (≈ 0.156 µM).

How did the MBC range (P. aeruginosa) turn out when `CN(C)c1cc(NC(=O)CNC(C)(C)C)c(O)c2c1C[C@H]1C[C@H]3[C@H](N(C)C)C(O)=C(C(N)=O)C(=O)[C@@]3(O)C(O)=C1C2=O` [Tigecycline] was run?
The MBC range was 8 to 256 µg/mL.

What about the MIC range (P. aeruginosa) of the same molecule?
Its MIC range is 2 to 32 µg/mL.

What about the MBC (P. aeruginosa; P. aeruginosa isolate no. 796) of the same molecule?
Its MBC is 32 µg/mL (≈ 54.6 µM).

And the MIC (P. aeruginosa; P. aeruginosa isolate no. 796)?
The MIC was 32 µg/mL (≈ 54.6 µM).

And the MBC (P. aeruginosa; P. aeruginosa isolate no. 956)?
The MBC was 128 µg/mL (≈ 219 µM).

What about the MIC (P. aeruginosa; P. aeruginosa isolate no. 956) of the same molecule?
The MIC was 16 µg/mL (≈ 27.3 µM).

What about the MBC (P. aeruginosa; P. aeruginosa isolate no. 1019) of the same molecule?
Its MBC is 8 µg/mL (≈ 13.7 µM).

And the MIC (P. aeruginosa; P. aeruginosa isolate no. 1019)?
The MIC was 2 µg/mL (≈ 3.41 µM).

What about the MBC (P. aeruginosa; P. aeruginosa isolate no. 1037) of the same molecule?
Its MBC is 32 µg/mL (≈ 54.6 µM).

And the MIC (P. aeruginosa; P. aeruginosa isolate no. 1037)?
Its MIC is 8 µg/mL (≈ 13.7 µM).

What about the MBC range [1] of the same molecule?
The MBC range was 0.5 to 4 µg/mL.

And the MIC range [1]?
The MIC range was 0.25 to 2 µg/mL.

What about the MBC ([1]; E. cloacae isolate no. 4073) of the same molecule?
The MBC was 2 µg/mL (≈ 3.41 µM).

What about the MIC ([1]; E. cloacae isolate no. 4073) of the same molecule?
The MIC was 0.5 µg/mL (≈ 0.854 µM).

And the MBC ([1]; E. cloacae isolate no. 5420)?
The MBC was 2 µg/mL (≈ 3.41 µM).

And the MIC ([1]; E. cloacae isolate no. 5420)?
The MIC was 0.5 µg/mL (≈ 0.854 µM).

And the MIC [2]?
Its MIC is at most 8 µg/mL.

What about the MBC range [3] of the same molecule?
Its MBC range is 0.5 to 8 µg/mL.

And the MIC range [3]?
The MIC range was 0.125 to 1 µg/mL.

And the MBC ([3]; K. pneumonia isolate no. 5427)?
The MBC was 2 µg/mL (≈ 3.41 µM).

And the MIC ([3]; K. pneumonia isolate no. 5427)?
Its MIC is 0.5 µg/mL (≈ 0.854 µM).

What about the MBC ([3]; K. pneumonia isolate no. 5436) of the same molecule?
Its MBC is 1 µg/mL (≈ 1.71 µM).

And the MIC ([3]; K. pneumonia isolate no. 5436)?
Its MIC is 0.125 µg/mL (≈ 0.213 µM).

What about the MIC (Acinetobacter baumannii; A. baumannii 2602) of the same molecule?
The MIC was 0.06 µg/mL.

What about the MIC (Acinetobacter baumannii; Acinetobacter baumannii) of the same molecule?
Its MIC is 0.06 µg/mL.

What about the MIC (Staphylococcus aureus; Staphylococcus aureus, MRSA, S. aureus 0765 (MRSA)) of the same molecule?
Its MIC is 0.25 µg/mL.

What about the MIC (Staphylococcus aureus; Staphylococcus aureus, MRSA, S. aureus 2053 (MRSA)) of the same molecule?
Its MIC is 0.5 µg/mL.

What about the MIC (Klebsiella pneumoniae) of the same molecule?
The MIC was 0.25 µg/mL.

What about the MIC (Streptococcus pneumoniae; S. pneumoniae 0884 (PRSP)) of the same molecule?
The MIC was 0.03 µg/mL.

What about the MIC (Streptococcus pneumoniae; Streptococcus pneumoniae, PRSP) of the same molecule?
Its MIC is 0.03 µg/mL.

What about the MBC range (ESBL-producing E. coli) of the same molecule?
Its MBC range is 0.06 to 4 µg/mL.

And the MIC range (ESBL-producing E. coli)?
Its MIC range is 0.06 to 0.5 µg/mL.

And the MBC (ESBL-producing E. coli; E. coli isolate no. 5401)?
Its MBC is 1 µg/mL (≈ 1.71 µM).

What about the MIC (ESBL-producing E. coli; E. coli isolate no. 5401) of the same molecule?
Its MIC is 0.5 µg/mL (≈ 0.854 µM).

What about the MBC (ESBL-producing E. coli; E. coli isolate no. 5411) of the same molecule?
Its MBC is 0.5 µg/mL (≈ 0.854 µM).

And the MIC (ESBL-producing E. coli; E. coli isolate no. 5411)?
The MIC was 0.125 µg/mL (≈ 0.213 µM).
